Assay results reported in PubChem BioAssay (NCI).
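The compound was tested at five concentrations on cells cultured in 96-well plates, with a 48-hour exposure period. GI50 is the concentration that inhibits growth by half. TGI denotes the concentration required for complete inhibition of growth.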

Experiments:
Assay in all cases: DTP human tumour cell line panel, 48 h
A498 renal = test system: A498 renal
SN12C renal = test system: SN12C renal
NCI-H460 lung = test system: NCI-H460 lung
MALME-3M melanoma = test system: MALME-3M melanoma
UO-31 renal = test system: UO-31 renal
SK-MEL-28 melanoma = test system: SK-MEL-28 melanoma
SF-268 CNS = test system: SF-268 CNS
TK-10 renal = test system: TK-10 renal
SNB-75 CNS = test system: SNB-75 CNS
MDA-MB-435 = test system: MDA-MB-435

For `NCCn1ccc(NC(c2ccccc2)(c2ccccc2)c2ccccc2)nc1=O`, the TGI (A498 renal) was over 100 µM, the TGI (SN12C renal) was 42.3 µM and the TGI (NCI-H460 lung) was 37.9 µM. The TGI (MALME-3M melanoma) was 33.4 µM, the TGI (UO-31 renal) was over 100 µM and the TGI (SK-MEL-28 melanoma) was 35 µM. It also gave a TGI (SF-268 CNS) of 31.4 µM, a TGI (TK-10 renal) of 85 µM and a TGI (SNB-75 CNS) of 33.9 µM.

Work on `COc1ccc2nc3ccccc3c(NCCCCCN(CCCl)CCCl)c2c1` yielded a TGI (NCI-H460 lung) of 0.192 µM, a TGI (UO-31 renal) of 0.418 µM and a TGI (SK-MEL-28 melanoma) of 1.19 µM. It also gave a TGI (SF-268 CNS) of 0.329 µM, a TGI (TK-10 renal) of 1.38 µM and a TGI (SNB-75 CNS) of 0.911 µM.

`COc1cc[c]([Sb]([Br])([CH]=C(C)C)([CH]=C(C)C)[CH]=C(C)C)cc1` gave a GI50 (A498 renal) of 28.8 µM, a TGI (A498 renal) of over 100 µM and a GI50 (SN12C renal) of 10.9 µM. For the same compound, the TGI (SN12C renal) was over 100 µM, the GI50 (NCI-H460 lung) was 6.61 µM and the TGI (NCI-H460 lung) was 54.5 µM. For the same compound, the GI50 (MALME-3M melanoma) was 2.28 µM, the TGI (MALME-3M melanoma) was over 100 µM and the GI50 (UO-31 renal) was 29.5 µM. It also gave a TGI (UO-31 renal) of 73.1 µM, a GI50 (SK-MEL-28 melanoma) of 2.98 µM and a TGI (SK-MEL-28 melanoma) of 93.5 µM. It also gave a GI50 (SF-268 CNS) of 3.52 µM, a TGI (SF-268 CNS) of 35.8 µM and a GI50 (TK-10 renal) of 18.8 µM. For the same compound, the TGI (TK-10 renal) was over 100 µM.

With `CC1(C(=O)NCCN(CCNC(=O)C2(C)CC3(C)CC(C)(C2)C(=O)NC3=O)CCNC(=O)C2(C)CC3(C)CC(C)(C2)C(=O)NC3=O)CC2(C)CC(C)(C1)C(=O)NC2=O` (stereo unspecified) the TGI (A498 renal) was over 100 µM, the TGI (SN12C renal) was over 100 µM and the TGI (NCI-H460 lung) was over 100 µM. It also gave a TGI (UO-31 renal) of over 100 µM, a TGI (SK-MEL-28 melanoma) of over 100 µM and a TGI (SNB-75 CNS) of over 100 µM.

`O=C(N[C@@H]1C=CCC[C@@H]1c1ccccc1)OCc1ccccc1` was tested, and the TGI (A498 renal) was 39 µM, the TGI (SN12C renal) was 31.1 µM and the TGI (NCI-H460 lung) was 34.7 µM. The TGI (MALME-3M melanoma) was 37 µM, the TGI (UO-31 renal) was 36.7 µM and the TGI (SK-MEL-28 melanoma) was 46.5 µM. The TGI (SF-268 CNS) was 59 µM, the TGI (TK-10 renal) was 24.6 µM and the TGI (SNB-75 CNS) was 60.6 µM.

Work on `CCN1CCC2(CC1)NC(=O)c1c(c3ccc(Cl)c(Cl)c3n1C)C2C#N` (stereo unspecified) yielded a GI50 (A498 renal) of 1.34 µM, a TGI (A498 renal) of 3.32 µM and a GI50 (SN12C renal) of 4.1 µM. For the same compound, the TGI (SN12C renal) was 16.3 µM, the GI50 (NCI-H460 lung) was 2.34 µM and the TGI (NCI-H460 lung) was 6.45 µM. It also gave a GI50 (MALME-3M melanoma) of 1.76 µM, a TGI (MALME-3M melanoma) of 3.37 µM and a GI50 (UO-31 renal) of 1.84 µM. The TGI (UO-31 renal) was 5.03 µM, the GI50 (SK-MEL-28 melanoma) was 1.65 µM and the TGI (SK-MEL-28 melanoma) was 3.07 µM. For the same compound, the GI50 (TK-10 renal) was 1.8 µM, the TGI (TK-10 renal) was 5.38 µM and the GI50 (SNB-75 CNS) was 1.75 µM. For the same compound, the TGI (SNB-75 CNS) was 4.64 µM, the GI50 (MDA-MB-435) was 1.93 µM and the TGI (MDA-MB-435) was 3.77 µM.

`O=[N+]([O-])c1cccc(/C=C/c2ccccn2)c1` was tested, and the GI50 (A498 renal) was 7.19 µM, the TGI (A498 renal) was over 100 µM and the GI50 (SN12C renal) was 38.8 µM. The TGI (SN12C renal) was over 100 µM, the GI50 (NCI-H460 lung) was 34.5 µM and the TGI (NCI-H460 lung) was over 100 µM. The GI50 (MALME-3M melanoma) was 37.5 µM, the TGI (MALME-3M melanoma) was over 100 µM and the GI50 (UO-31 renal) was 23.3 µM. It also gave a TGI (UO-31 renal) of over 100 µM, a GI50 (SK-MEL-28 melanoma) of over 100 µM and a TGI (SK-MEL-28 melanoma) of over 100 µM. The GI50 (SF-268 CNS) was 24.7 µM, the TGI (SF-268 CNS) was over 100 µM and the GI50 (SNB-75 CNS) was 5.47 µM. The TGI (SNB-75 CNS) was 75.4 µM, the GI50 (MDA-MB-435) was 67 µM and the TGI (MDA-MB-435) was over 100 µM.

Work on `C/C(=C1/N=C(c2ccccc2)OC1=O)c1ccc(C)cc1` yielded a TGI (A498 renal) of over 100 µM, a TGI (SN12C renal) of over 100 µM and a TGI (NCI-H460 lung) of over 100 µM. For the same compound, the TGI (MALME-3M melanoma) was over 100 µM, the TGI (SK-MEL-28 melanoma) was over 100 µM and the TGI (SF-268 CNS) was over 100 µM. For the same compound, the TGI (TK-10 renal) was over 100 µM and the TGI (MDA-MB-435) was over 100 µM.

`NC(=S)N/N=C1\C(=O)N(CCc2ccccc2)C(=O)C1C(=O)NCCc1ccccc1` (stereo unspecified) gave a TGI (A498 renal) of over 100 µM, a TGI (SN12C renal) of over 100 µM and a TGI (NCI-H460 lung) of over 100 µM. For the same compound, the TGI (MALME-3M melanoma) was over 100 µM, the TGI (UO-31 renal) was over 100 µM and the TGI (SK-MEL-28 melanoma) was over 100 µM. It also gave a TGI (SF-268 CNS) of over 100 µM, a TGI (TK-10 renal) of over 100 µM and a TGI (SNB-75 CNS) of over 100 µM.

Compound `CN1C(=O)N(C)C2C1NN=c1s/c(=C\c3c[nH]c4ccccc34)c(=O)n12` (stereo unspecified) has a GI50 (A498 renal) of 0.0688 µM, a TGI (A498 renal) of 0.602 µM and a GI50 (SN12C renal) of 0.0714 µM. The TGI (SN12C renal) was over 100 µM, the GI50 (NCI-H460 lung) was 0.0397 µM and the TGI (NCI-H460 lung) was over 100 µM. For the same compound, the GI50 (MALME-3M melanoma) was 0.0689 µM, the TGI (MALME-3M melanoma) was over 100 µM and the GI50 (SK-MEL-28 melanoma) was 34.5 µM. It also gave a TGI (SK-MEL-28 melanoma) of over 100 µM, a GI50 (SF-268 CNS) of 0.588 µM and a TGI (SF-268 CNS) of over 100 µM. It also gave a GI50 (TK-10 renal) of 34.7 µM, a TGI (TK-10 renal) of over 100 µM and a GI50 (SNB-75 CNS) of under 0.0158 µM. It also gave a GI50 (MDA-MB-435) of 0.0162 µM and a TGI (MDA-MB-435) of 0.0482 µM.
